Experimental data taken from patent US8163805B2, “Small molecule antagonists of Bcl-2 family proteins” (The Regents of the University of Michigan, priority 2001, dated 2012).
Like-named read-outs stand apart in the source and are kept apart here.

Legend:
[1] = molecular target: T1, Bcl-XL (Homo sapiens, UniProt Q07817, DEL45-84); assay: FP binding assay, Flu-Bid 21-residue peptide and Bcl-XL (FIG. 5, 46)
T1 construct: His-tag (N); made in house

[2] = system: PC-3 cells
[3] = system: human breast cancer MDA-MB-231 (2LMP) xenograft; details: Table 8
[4] = system: UM-SCC-6; assay: Flow cytometric TUNEL apoptosis assay, UM-SCC-6; type: cell-based, human; details: 10 μM, 48-hour
Description: (§1) Briefly, FIGS. 24A-24C show apoptosis after (−)-gossypol as measured by a fluorescent flow cytometric TUNEL assay. Open peaks represent BrdU labeling of untreated cells. Shaded peaks indicate BrdU labeling of cell populations following 48-hour treatment with 10 μM (−)-gossypol; FIG. 24A, UM-SCC-cell lines with wild type p53; FIG. 24B, UM-SCC-cell lines with mutant p53; and FIG. 24C normal fibroblast cells.
(§2) Apoptosis of UM-SCC cell lines following (−)-gossypol treatment was quantitatively detected by enzymatic labeling of DNA strand breaks using terminal deoxynucleotidyltransferase (TdT) and Alexa Fluor-BrdUTP, known as the TdT-UTP nick end-labeling (TUNEL) assay by flow cytometry. Cells were exposed to (−)-gossypol for 48 hours, harvested, fixed and TUNEL stained according to the manufacturer's protocol (Molecular Probes Inc., Eugene, Oreg.). Ten thousand cells were analyzed per sample using excitation of Alexa Fluor at 488 nm. Apoptotic index (AI) was defined as percent of apoptotic cells in the treatment population minus that in the vehicle control population.

[5] = system: UM-SCC-1; assay: Trypan blue exclusion cell death, UM-SCC-1; type: cell-based, human; details: 10 μM, 48 hour
Description: Cells were seeded in 24 or 96-well-plates and gossypol compounds were prepared at 2-10 fold dilutions in suitable medium. […] Cell viability was then determined by the trypan-blue assays. Inhibition of cell growth was determined by treating cells with gossypol compounds for 3-6 days. Cell inhibition was determined using XTT. In some embodiments, MTT assays are used to determine cell inhibition.

[6] = molecular target: T1, Bcl-XL; assay: 15N HSQC NMR binding to Bcl-XL
[7] = system: LnCap prostate cancer cells; assay: MTT-based 5-day cell proliferation, LnCap; set-up: species or system human
Source text: (§3) The present invention is not limited to any mechanism. Indeed, a mechanistic understanding of the invention is unnecessary to practice (make and use) the present compositions and methods.

[8] = system: UM-SCC-14A; assay: 6-day MTT cell growth, UM-SCC-14A; type: cell-based, human; details: read-out: IC50, inhibition of cell growth
Description: (§4) UM-SCC and human fibroblast cell lines were continuously exposed to varying concentrations of (−)-gossypol in 6-day MTT cell survival assays. Control wells contained media (DMEM) with vehicle alone. For each data point n=5.
(§5) Ten squamous cell carcinoma cell lines established at the University of Michigan (UM-SCC) and three human fibroblast lines were grown in Dulbecco's modified Eagle's medium (DMEM) supplemented with 10% fetal bovine serum. UM-SCC cell lines originated from the larynx (n=2; UM-SCC-12, -23), oral cavity/oropharynx (n=5; UM-SCC-1, -6, -14A, -74B, -81B), hypopharynx (n=1; UM-SCC-22A) and metastases from laryngeal cancers (n=2; UM-SCC-17B, -25). Human fibroblast cell lines originated from surgical specimens (fibroblast cell lines 2 and 3) and neonatal foreskin samples (fibroblast cell line 1).
(§6) Logarithmically growing cell lines were cultured, washed, counted, and plated at 5,000-15,000 cells per well in duplicate wells of 96-well plates and incubated in DMEM overnight. […] The MTT assay measures cell survival based on mitochondrial conversion of MTT from a soluble tetrazolium salt into an insoluble colored formazan precipitate, which is dissolved in dimethyl sulfoxide and quantitated by spectrophotometry. […] Percent absorbance relative to control was plotted as a linear function of drug concentration.

[9] = system: Fib-3 (fibroblast cell line 3); assay: 6-day MTT cell growth, Fib-3; type: cell-based, human; details: read-out: IC50, inhibition of cell growth
Description: as §4, §5, §6

[10] = system: HNSCC cell lines; assay: 6-day MTT cell survival, mean over HNSCC cell lines; type: cell-based, human
[11] = system: PARP protein; assay: PARP protein cleavage; type: cell-based; details: compared under identical doses
[12] = system: PC-3 prostate cancer cell line; assay: Annexin V-FITC/PI apoptosis with TXT or CDDP, PC-3; type: cell-based, human; details: PC-3, 48 hrs
Source text: as §3

[13] = system: DU145; assay: MTT-based 5-day cell proliferation, DU145; details: DU145, FIG. 42
Source text: as §3

[14] = system: fibroblast cell lines; assay: Flow cytometric TUNEL apoptosis assay, fibroblast cell lines; type: cell-based, human; details: 10 μM, 48-hour
Description: as §1, §2

[15] = system: UM-SCC-6; assay: 6-day MTT cell growth, UM-SCC-6; type: cell-based, human; details: read-out: IC50, inhibition of cell growth
Description: as §4, §5, §6

[16] = system: PC-3 prostate cancer cells; assay: MTT-based 5-day cell proliferation, PC-3; set-up: species or system human
Source text: as §3

[17] = 8 Gy radiation with 4 μM gossypol
[18] = 8 Gy radiation with 5 μM gossypol

T1 sequence (Q07817 with tags, fused parts or gaps DEL45-84 limits assumed): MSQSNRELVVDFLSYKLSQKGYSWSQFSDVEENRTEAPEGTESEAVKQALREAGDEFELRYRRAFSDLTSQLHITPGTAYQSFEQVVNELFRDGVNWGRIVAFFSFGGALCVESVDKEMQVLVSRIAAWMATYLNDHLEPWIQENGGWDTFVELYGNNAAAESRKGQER

SMILES: Cc1cc2c(C(C)C)c(O)c(O)c(C=O)c2c(O)c1-c1c(C)cc2c(C(C)C)c(O)c(O)c(C=O)c2c1O [(−)-gossypol]
- inhibition of binding between Bad BH3 peptide and Bcl-XL [1]: directly inhibit binding between Bad BH3 peptide and Bcl-XL
- Combination Index (CI) [2, 17]: 0.34
- Dose Reduction Index (DRI) [2, 17]: 4.3
- Combination Index (CI) [2, 18]: 0.27
- Dose Reduction Index (DRI) [2, 18]: 6.1
- reduction in colony formation from controls ([2]; with 6 Gy X-ray): 10 fold
- reduction in colony formation from controls ([2]; with 8 Gy X-ray): 20 fold
- tumor growth inhibition ([3]; (−)-gossypol 7.5 mg/kg p.o. in combination with docetaxel 7.5 mg/kg i.v., p < 0.01): there was more than 90% tumor
- tumor growth inhibition ([3]; (−)-gossypol 30 mg/kg p.o. q day for 4 weeks, alone): 30 mg/kg of G-, there was 40%
- anti-tumor effect ([3]; (−)-gossypol 15 or 7.5 mg/kg p.o. alone): did not achieve significant anti-
- tumor growth inhibition ([3]; (−)-gossypol at any of the three doses (7.5, 15, 30 mg/kg p.o.) in combination with docetaxel 7.5 mg/kg i.v.): all achieved significant tumor
- tumor regression, number of mice ([3]; (−)-gossypol in combination with docetaxel, 8 mice per group): There was tumor regression in 3 mice
- inhibition of tumor growth by (−)-gossypol alone ([3]; MDA-231 fat-pad xenografts, Balb/c nude mouse, 7.5, 15 or 30 mg/kg p.o. q day for 4 weeks, alone): There was dose-dependent
- apoptotic index (AI) [4]: 80.3%
- surviving (trypan blue excluding) fraction relative to untreated controls [5]: 20%
- binding to Bcl-XL by NMR [6]: bind to the BH3 binding groove in Bcl-XL
- potency in inhibiting cancer cell growth relative to (+)-gossypol [7]: 5-10 times
- potency in inhibiting cancer cell growth relative to racemic gossypol [7]: 2 times
- IC50 [8]: 11 µM
- IC50 [9]: 18 µM
- IC50 [10]: 5.57 ± 2.57 µM
- cleavage of PARP protein [11]: more cleavage of PARP protein
- effect on activity of docetaxel and cisplatin [12]: enhanced the activities of docetaxel and cisplatin (CDDP) in inhibiting cell growth and inducing apoptosis
- cytotoxicity [13]: very limited effect
- induction of apoptosis [14]: no induction of apoptosis
- IC50 [15]: 11 µM
- potency in inhibiting cancer cell growth relative to (+)-gossypol [16]: 5-10 times
- potency in inhibiting cancer cell growth relative to racemic gossypol [16]: 2 times
